The record followed here is patent publication US4501892A, “Pyridyl benzenediols” (The Upjohn Company, priority 1982, dated 1985).

The target of this test is T1, TXA2 synthetase (Homo sapiens, UniProt P24557).
T1 construct: human platelet microsomes (HPM); from tissue; host or cells: human platelet microsomes
T1 sequence (P24557 1-533): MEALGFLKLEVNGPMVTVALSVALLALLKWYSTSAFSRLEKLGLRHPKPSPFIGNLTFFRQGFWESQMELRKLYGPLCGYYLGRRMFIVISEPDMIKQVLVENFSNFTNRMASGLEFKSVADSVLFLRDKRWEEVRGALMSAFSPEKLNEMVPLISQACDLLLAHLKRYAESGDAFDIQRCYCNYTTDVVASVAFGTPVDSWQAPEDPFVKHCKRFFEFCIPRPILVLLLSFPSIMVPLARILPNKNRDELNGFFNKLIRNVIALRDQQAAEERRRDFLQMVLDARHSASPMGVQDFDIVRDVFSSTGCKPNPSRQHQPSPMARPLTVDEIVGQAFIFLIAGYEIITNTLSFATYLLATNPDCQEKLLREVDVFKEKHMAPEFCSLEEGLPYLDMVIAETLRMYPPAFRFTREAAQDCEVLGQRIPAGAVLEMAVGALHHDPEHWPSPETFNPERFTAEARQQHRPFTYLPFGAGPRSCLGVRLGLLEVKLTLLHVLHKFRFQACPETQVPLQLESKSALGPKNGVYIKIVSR
As to the kind of experiment: TXA2 inhibition test: PGH2 mixed with human platelet microsomes (HPM), TXA2 measured by response of superfused rabbit aortic strips. The test is classed as biochemical. The note with it: rabbit aorta response; for effectiveness in inhibiting TXA2 formation (in words): PGH2 + human platelet microsomes. The procedure:
The compounds of the present invention were tested for TXA2 inhibition as follows:
Rabbit aortic strips were superfused in series with Krebs solution. Thromboxane A2 (TXA2) was generated by mixing prostaglandin H2 (PGH2) with human platelet microsomes (HPM).
Potential inhibitors were tested by comparing the response of the rabbit aorta to the amount of TXA2 produced by mixing PGH2 and HPM without the test compound in the reaction medium and then the amount of TXA2 produced when the test compound was added to the HPM 5 minutes before the HPM was mixed with PGH2. […] For a discussion of TXA2 synthetase inhibition testing see, e.g., R. Gorman, supra.

Consider `COC(=O)C1Oc2ccc(Cc3cccnc3)cc2O1` (racemic) [Example 1, dl-4-(3-Pyridinylmethyl)-1,2-benzenediol, methyl glyoxylate acetal], for which the “effectiveness in inhibiting TXA2 formation (in words)” value was “most effective”. Further, the IC50 (test compound added to HPM 5 minutes before mixing with PGH2, read-out: approximate ED50 (inhibition of TXA2 formation) (converted)) is approximately 369 nM.
On to “2,3-Dihydro-7-(and 6-)(3-pyridinylmethyl)-1,4-benzodioxin-2-carboxylic acid, sodium salt”, for which the “effectiveness in inhibiting TXA2 formation (in words)” value is recorded as “most effective”.
